Measured values from the NIST ThermoML archive (doi:10.1021/je060139a).
± gives the expanded uncertainty stated by the source.

Legend:
[1] = xn = mol fraction of the nth substance listed; conditions: Wilhelmy plate method
[2] = refractive index (Na D-line) (dimensionless); xn = mol fraction of the nth substance listed; conditions: 100.5 kPa, Liquid, Standard Abbe refractometry

CC(=O)OCc1ccccc1 [benzyl ethanoate] + CCO
Conditions	refractive index, 288.15 K	refractive index, 298.18 K	refractive index, 308.15 K	refractive index, 318.15 K	surface tension liquid-gas, 288.15 K [mN/m]	surface tension liquid-gas, 298.18 K [mN/m]	surface tension liquid-gas, 308.15 K [mN/m]	surface tension liquid-gas, 318.15 K [mN/m]
[1], x1 = 0.05	–	–	–	–	24 ± 0.4	23.2 ± 0.4	22.3 ± 0.4	21.3 ± 0.4
[1], x1 = 0.1	–	–	–	–	24.8 ± 0.4	23.9 ± 0.4	23 ± 0.4	22 ± 0.4
[1], x1 = 0.15	–	–	–	–	25.5 ± 0.4	24.57 ± 0.4	23.63 ± 0.4	22.6 ± 0.4
[1], x1 = 0.2	–	–	–	–	26.1 ± 0.4	25.18 ± 0.4	24.23 ± 0.4	23.2 ± 0.4
[1], x1 = 0.25	–	–	–	–	26.7 ± 0.4	25.77 ± 0.4	24.83 ± 0.4	23.8 ± 0.4
[1], x1 = 0.3	–	–	–	–	27.3 ± 0.4	26.36 ± 0.4	25.43 ± 0.4	24.4 ± 0.4
[1], x1 = 0.35	–	–	–	–	28 ± 0.4	27.02 ± 0.4	26.07 ± 0.4	25.03 ± 0.4
[1], x1 = 0.4	–	–	–	–	28.7 ± 0.4	27.69 ± 0.4	26.72 ± 0.4	25.66 ± 0.4
[1], x1 = 0.45	–	–	–	–	29.4 ± 0.4	28.37 ± 0.4	27.38 ± 0.4	26.3 ± 0.4
[1], x1 = 0.5	–	–	–	–	30.1 ± 0.4	29.02 ± 0.4	28.03 ± 0.4	26.93 ± 0.4
[1], x1 = 0.55	–	–	–	–	30.8 ± 0.4	29.69 ± 0.4	28.67 ± 0.4	27.56 ± 0.4
[1], x1 = 0.6	–	–	–	–	31.5 ± 0.4	30.36 ± 0.4	29.3 ± 0.4	28.17 ± 0.4
[1], x1 = 0.65	–	–	–	–	32.2 ± 0.4	31.02 ± 0.4	29.94 ± 0.4	28.78 ± 0.4
[1], x1 = 0.7	–	–	–	–	32.9 ± 0.4	31.68 ± 0.4	30.58 ± 0.4	29.41 ± 0.4
[1], x1 = 0.75	–	–	–	–	33.62 ± 0.4	32.37 ± 0.4	31.24 ± 0.4	30.06 ± 0.4
[1], x1 = 0.8	–	–	–	–	34.4 ± 0.4	33.08 ± 0.4	31.93 ± 0.4	30.75 ± 0.4
[1], x1 = 0.85	–	–	–	–	35.2 ± 0.41	33.92 ± 0.4	32.8 ± 0.4	31.6 ± 0.4
[1], x1 = 0.9	–	–	–	–	36.1 ± 0.41	34.8 ± 0.41	33.7 ± 0.41	32.45 ± 0.4
[1], x1 = 0.95	–	–	–	–	36.9 ± 0.41	35.6 ± 0.41	34.5 ± 0.41	33.3 ± 0.41
[1], x1 = 1	–	–	–	–	37.7 ± 0.41	36.4 ± 0.41	35.3 ± 0.41	34.1 ± 0.41
[2], x1 = 0.05	1.38022 ± 0.00031	1.37602 ± 0.00031	1.37164 ± 0.00031	1.36738 ± 0.00031	–	–	–	–
[2], x1 = 0.1	1.39462 ± 0.00031	1.39033 ± 0.00032	1.38588 ± 0.00032	1.38161 ± 0.00032	–	–	–	–
[2], x1 = 0.15	1.40725 ± 0.00032	1.40288 ± 0.00032	1.39843 ± 0.00032	1.39409 ± 0.00032	–	–	–	–
[2], x1 = 0.2	1.41836 ± 0.00032	1.41395 ± 0.00032	1.40945 ± 0.00032	1.40506 ± 0.00032	–	–	–	–
[2], x1 = 0.25	1.42813 ± 0.00032	1.42372 ± 0.00032	1.41929 ± 0.00032	1.41487 ± 0.00032	–	–	–	–
[2], x1 = 0.3	1.43696 ± 0.00032	1.43255 ± 0.00032	1.4281 ± 0.00032	1.42364 ± 0.00032	–	–	–	–
[2], x1 = 0.35	1.44489 ± 0.00032	1.44048 ± 0.00032	1.43604 ± 0.00032	1.43155 ± 0.00032	–	–	–	–
[2], x1 = 0.4	1.45211 ± 0.00032	1.44767 ± 0.00032	1.44323 ± 0.00032	1.4387 ± 0.00032	–	–	–	–
[2], x1 = 0.45	1.45868 ± 0.00032	1.4542 ± 0.00032	1.44974 ± 0.00032	1.44517 ± 0.00032	–	–	–	–
[2], x1 = 0.5	1.4647 ± 0.00032	1.46016 ± 0.00032	1.45571 ± 0.00032	1.4511 ± 0.00032	–	–	–	–
[2], x1 = 0.55	1.4702 ± 0.00032	1.46565 ± 0.00032	1.46119 ± 0.00032	1.45653 ± 0.00032	–	–	–	–
[2], x1 = 0.6	1.47521 ± 0.00032	1.47065 ± 0.00032	1.46619 ± 0.00032	1.46154 ± 0.00032	–	–	–	–
[2], x1 = 0.65	1.47987 ± 0.00032	1.47531 ± 0.00032	1.47082 ± 0.00032	1.46613 ± 0.00032	–	–	–	–
[2], x1 = 0.7	1.48418 ± 0.00032	1.47958 ± 0.00032	1.47508 ± 0.00032	1.47036 ± 0.00032	–	–	–	–
[2], x1 = 0.75	1.48819 ± 0.00032	1.48358 ± 0.00032	1.47907 ± 0.00032	1.47434 ± 0.00032	–	–	–	–
[2], x1 = 0.8	1.49191 ± 0.00032	1.48729 ± 0.00032	1.48279 ± 0.00032	1.47804 ± 0.00032	–	–	–	–
[2], x1 = 0.85	1.49539 ± 0.00032	1.49076 ± 0.00032	1.48626 ± 0.00032	1.48148 ± 0.00032	–	–	–	–
[2], x1 = 0.9	1.49871 ± 0.00032	1.49408 ± 0.00032	1.48959 ± 0.00032	1.48481 ± 0.00032	–	–	–	–
[2], x1 = 0.95	1.5017 ± 0.00032	1.49709 ± 0.00032	1.49262 ± 0.00032	1.48783 ± 0.00032	–	–	–	–
[2], x1 = 1	1.50439 ± 0.00032	1.49982 ± 0.00032	1.49539 ± 0.00032	1.49064 ± 0.00032	–	–	–	–

CCOC(=O)CC(C)=O [ethyl 3-oxobutanoate] + CCO
Conditions	refractive index, 288.15 K	refractive index, 298.18 K	refractive index, 308.15 K	refractive index, 318.15 K	surface tension liquid-gas, 288.15 K [mN/m]	surface tension liquid-gas, 298.18 K [mN/m]	surface tension liquid-gas, 308.15 K [mN/m]	surface tension liquid-gas, 318.15 K [mN/m]
[1], x1 = 0.05	–	–	–	–	23.53 ± 0.4	22.77 ± 0.4	21.91 ± 0.4	20.98 ± 0.4
[1], x1 = 0.1	–	–	–	–	24.1 ± 0.4	23.31 ± 0.4	22.42 ± 0.4	21.46 ± 0.4
[1], x1 = 0.15	–	–	–	–	24.65 ± 0.4	23.83 ± 0.4	22.91 ± 0.4	21.94 ± 0.4
[1], x1 = 0.2	–	–	–	–	25.22 ± 0.4	24.38 ± 0.4	23.42 ± 0.4	22.43 ± 0.4
[1], x1 = 0.25	–	–	–	–	25.77 ± 0.4	24.89 ± 0.4	23.9 ± 0.4	22.9 ± 0.4
[1], x1 = 0.3	–	–	–	–	26.28 ± 0.4	25.38 ± 0.4	24.38 ± 0.4	23.37 ± 0.4
[1], x1 = 0.35	–	–	–	–	26.78 ± 0.4	25.88 ± 0.4	24.84 ± 0.4	23.83 ± 0.4
[1], x1 = 0.4	–	–	–	–	27.28 ± 0.4	26.36 ± 0.4	25.32 ± 0.4	24.3 ± 0.4
[1], x1 = 0.45	–	–	–	–	27.8 ± 0.4	26.86 ± 0.4	25.81 ± 0.4	24.79 ± 0.4
[1], x1 = 0.5	–	–	–	–	28.35 ± 0.41	27.4 ± 0.4	26.32 ± 0.4	25.29 ± 0.4
[1], x1 = 0.55	–	–	–	–	28.92 ± 0.41	27.96 ± 0.41	26.84 ± 0.41	25.8 ± 0.41
[1], x1 = 0.6	–	–	–	–	29.46 ± 0.41	28.52 ± 0.41	27.38 ± 0.41	26.31 ± 0.41
[1], x1 = 0.65	–	–	–	–	30.02 ± 0.41	29.04 ± 0.41	27.9 ± 0.41	26.81 ± 0.41
[1], x1 = 0.7	–	–	–	–	30.54 ± 0.41	29.55 ± 0.41	28.4 ± 0.41	27.3 ± 0.41
[1], x1 = 0.75	–	–	–	–	31.05 ± 0.41	30.06 ± 0.41	28.89 ± 0.41	27.78 ± 0.41
[1], x1 = 0.8	–	–	–	–	31.53 ± 0.41	30.54 ± 0.41	29.36 ± 0.41	28.24 ± 0.41
[1], x1 = 0.85	–	–	–	–	32.02 ± 0.42	31.01 ± 0.41	29.81 ± 0.41	28.7 ± 0.41
[1], x1 = 0.9	–	–	–	–	32.47 ± 0.42	31.46 ± 0.42	30.26 ± 0.42	29.14 ± 0.41
[1], x1 = 0.95	–	–	–	–	32.91 ± 0.42	31.89 ± 0.42	30.68 ± 0.42	29.56 ± 0.42
[1], x1 = 1	–	–	–	–	33.3 ± 0.42	32.3 ± 0.42	31.1 ± 0.42	30 ± 0.42
[2], x1 = 0.05	1.3696 ± 0.0003	1.3654 ± 0.0003	1.3612 ± 0.0003	1.3572 ± 0.0003	–	–	–	–
[2], x1 = 0.1	1.3751 ± 0.0003	1.3709 ± 0.0003	1.3666 ± 0.0003	1.3625 ± 0.0003	–	–	–	–
[2], x1 = 0.15	1.38 ± 0.0003	1.3757 ± 0.0003	1.3714 ± 0.0003	1.3672 ± 0.0003	–	–	–	–
[2], x1 = 0.2	1.3843 ± 0.0003	1.3801 ± 0.0003	1.3758 ± 0.0003	1.3715 ± 0.0003	–	–	–	–
[2], x1 = 0.25	1.3882 ± 0.0003	1.384 ± 0.0003	1.3797 ± 0.0003	1.3755 ± 0.0003	–	–	–	–
[2], x1 = 0.3	1.3918 ± 0.0003	1.3876 ± 0.0003	1.3833 ± 0.0003	1.379 ± 0.0003	–	–	–	–
[2], x1 = 0.35	1.3951 ± 0.0003	1.3908 ± 0.0003	1.3866 ± 0.0003	1.3823 ± 0.0003	–	–	–	–
[2], x1 = 0.4	1.3981 ± 0.0003	1.3938 ± 0.0003	1.3896 ± 0.0003	1.3852 ± 0.0003	–	–	–	–
[2], x1 = 0.45	1.4009 ± 0.0003	1.3965 ± 0.0003	1.3923 ± 0.0003	1.388 ± 0.0003	–	–	–	–
[2], x1 = 0.5	1.4034 ± 0.0003	1.3991 ± 0.0003	1.3949 ± 0.0003	1.3905 ± 0.0003	–	–	–	–
[2], x1 = 0.55	1.4058 ± 0.0003	1.4014 ± 0.0003	1.3972 ± 0.0003	1.3928 ± 0.0003	–	–	–	–
[2], x1 = 0.6	1.4079 ± 0.0003	1.4036 ± 0.0003	1.3994 ± 0.0003	1.395 ± 0.0003	–	–	–	–
[2], x1 = 0.65	1.41 ± 0.0003	1.4056 ± 0.0003	1.4014 ± 0.0003	1.397 ± 0.0003	–	–	–	–
[2], x1 = 0.7	1.4119 ± 0.0003	1.4075 ± 0.0003	1.4033 ± 0.0003	1.3989 ± 0.0003	–	–	–	–
[2], x1 = 0.75	1.4137 ± 0.0003	1.4093 ± 0.0003	1.4051 ± 0.0003	1.4007 ± 0.0003	–	–	–	–
[2], x1 = 0.8	1.4154 ± 0.0003	1.4111 ± 0.0003	1.4069 ± 0.0003	1.4024 ± 0.0003	–	–	–	–
[2], x1 = 0.85	1.417 ± 0.0003	1.4126 ± 0.0003	1.4084 ± 0.0003	1.404 ± 0.0003	–	–	–	–
[2], x1 = 0.9	1.4184 ± 0.0003	1.4141 ± 0.0003	1.4099 ± 0.0003	1.4054 ± 0.0003	–	–	–	–
[2], x1 = 0.95	1.4198 ± 0.0004	1.4154 ± 0.0004	1.4112 ± 0.0004	1.4068 ± 0.0004	–	–	–	–
[2], x1 = 1	1.4209 ± 0.0004	1.4166 ± 0.0004	1.4125 ± 0.0004	1.408 ± 0.0004	–	–	–	–
